These results are taken from paper PMC10946806, “Development of Bifunctional, Raman Active Diyne‐Girder Stapled α‐Helical Peptides” (Chemistry (Weinheim an Der Bergstrasse, Germany), 2023).

The nature of data set [1]: Circular dichroism (CD) spectroscopy, % helicity. The data set is classed as physicochemical. The procedure: Circular dichroism (CD): CD spectra were obtained using a JASCO J-810 CD spectrometer. […] Percentage helicities can be calculated for α-helical peptides. […] […] Equation S1. MRE calculation. […] To 100 μL of peptide solution was added 100 11
On the technique in general: CD spectra are sensitive to the conformation of chiral molecules.

Positions of bridges follow the written chain, without caps; N, C: chain ends. Non-standard residues stand in square brackets, D forms with d. Residues, ends and D or L forms follow the SMILES beside them. *: point of attachment. FITC = O=C1OC2(c3ccc(O)cc3Oc3cc(O)ccc32)c2ccc(NC(=S)*)cc21; R8 = C=CCCCCCC[C@@](C)(N)C(=O)O; S5 = C=CCCC[C@](C)(N)C(=O)O; Nle = CCCC[C@H](N)C(=O)O; Ahx = NCCCCCC(=O)O Some results are limits rather than exact numbers.

`CCCC[C@@H]1NC(=O)[C@H](CCCNC(=N)N)NC(=O)[C@H](C)NC(=O)[C@H](Cc2ccc(O)cc2)NC(=O)[C@](C)(NC(=O)[C@H](CCCCN)NC(=O)[C@H](C)NC(=O)CCCCCNC(=S)Nc2ccc3c(c2)C(=O)OC32c3ccc(O)cc3Oc3cc(O)ccc32)CCCCCC/C=C/CCC[C@@](C)(C(=O)N[C@@H](CC(C)C)C(=O)N[C@@H](CCCCN)C(=O)N[C@@H](CCC(=O)O)C(=O)N[C@H](C(=O)N[C@@H](C)C(=O)N[C@@H](CCCCN)C(N)=O)[C@@H](C)CC)NC(=O)[C@H](CCCNC(=N)N)NC(=O)CNC1=O` ({FITC-Ahx}-AK[R8]YAR[Nle]GR[S5]LKEIAK-NH2; staple (E) 3-10) registered a % peptide remaining after 4 h with chymotrypsin of over 92%.
Same read-out and setting: the result for `CCCC[C@@H]1NC(=O)[C@H](CCCNC(=N)N)NC(=O)[C@H](C)NC(=O)[C@H](Cc2ccc(O)cc2)NC(=O)[C@@H](NC(=O)[C@H](CCCCN)NC(=O)[C@H](C)NC(=O)CCCCCNC(=S)Nc2ccc3c(c2)C(=O)OC32c3ccc(O)cc3Oc3cc(O)ccc32)CCCCCC#CC#CCCCCC[C@@H](C(=O)N[C@@H](CC(C)C)C(=O)N[C@@H](CCCCN)C(=O)N[C@@H](CCC(=O)O)C(=O)N[C@H](C(=O)N[C@@H](C)C(=O)N[C@@H](CCCCN)C(N)=O)[C@@H](C)CC)NC(=O)[C@H](CCCNC(=N)N)NC(=O)CNC1=O` reads over 92%.
Same read-out and setting: the same measure for `CCCC[C@@H]1NC(=O)[C@H](CCCNC(=N)N)NC(=O)[C@H](C)NC(=O)[C@H](Cc2ccc(O)cc2)NC(=O)[C@](C)(NC(=O)[C@H](CCCCN)NC(=O)[C@H](C)NC(=O)CCCCCNC(=S)Nc2ccc3c(c2)C(=O)OC32c3ccc(O)cc3Oc3cc(O)ccc32)CCCCCC/C=C\CCC[C@@](C)(C(=O)N[C@@H](CC(C)C)C(=O)N[C@@H](CCCCN)C(=O)N[C@@H](CCC(=O)O)C(=O)N[C@H](C(=O)N[C@@H](C)C(=O)N[C@@H](CCCCN)C(N)=O)[C@@H](C)CC)NC(=O)[C@H](CCCNC(=N)N)NC(=O)CNC1=O` ({FITC-Ahx}-AK[R8]YAR[Nle]GR[S5]LKEIAK-NH2; staple (Z) 3-10): over 92%.
In the case of “FTU-Ahx-AKS8YAR(Nle)GRR8LKEIAK-NH2 (sidechain bridge or staple) [compound 36, diyne-girder stapled T-STAR peptide, C16 bridge, SR]”, the “percentage helicity (in words)” value in data set [1] (peptide 50 μM in PBS pH 7.4, 222 nm) is “high”.
Compound `CCCC[C@@H]1NC(=O)[C@H](CCCNC(=N)N)NC(=O)[C@H](C)NC(=O)[C@H](Cc2ccc(O)cc2)NC(=O)[C@@](C)(NC(=O)[C@H](CCCCN)NC(=O)[C@H](C)NC(=O)CCCCCNC(=S)Nc2ccc3c(c2)C(=O)OC32c3ccc(O)cc3Oc3cc(O)ccc32)CCCCCC#CC#CCCCCC[C@@](C)(C(=O)N[C@@H](CC(C)C)C(=O)N[C@@H](CCCCN)C(=O)N[C@@H](CCC(=O)O)C(=O)N[C@H](C(=O)N[C@@H](C)C(=O)N[C@@H](CCCCN)C(N)=O)[C@@H](C)CC)NC(=O)[C@H](CCCNC(=N)N)NC(=O)CNC1=O` registered a % peptide remaining after 4 h with chymotrypsin of over 92%.
In the case of “FTU-Ahx-AKS7YAR(Nle)GRR7LKEIAK-NH2 (sidechain bridge or staple) [compound 32, diyne-girder stapled T-STAR peptide, C14 bridge, SR]”, the “percentage helicity at 222 nm from mean residue ellipticity” value in data set [1] (peptide 50 μM in PBS pH 7.4, room temperature, MRE at 222 nm converted by Equation S2) worked out at 54%.
